Literature values as cited in PMC9516332 (Frontiers in Oncology, 2022).
Read-outs that look alike come from different tables or passages of the source.

Legend:
Conditions in all cases: cited from earlier work
[1] = target: T1, panel of 255 wild-type kinases (Homo sapiens, UniProt P15735)
T1 sequence (P15735 1-406): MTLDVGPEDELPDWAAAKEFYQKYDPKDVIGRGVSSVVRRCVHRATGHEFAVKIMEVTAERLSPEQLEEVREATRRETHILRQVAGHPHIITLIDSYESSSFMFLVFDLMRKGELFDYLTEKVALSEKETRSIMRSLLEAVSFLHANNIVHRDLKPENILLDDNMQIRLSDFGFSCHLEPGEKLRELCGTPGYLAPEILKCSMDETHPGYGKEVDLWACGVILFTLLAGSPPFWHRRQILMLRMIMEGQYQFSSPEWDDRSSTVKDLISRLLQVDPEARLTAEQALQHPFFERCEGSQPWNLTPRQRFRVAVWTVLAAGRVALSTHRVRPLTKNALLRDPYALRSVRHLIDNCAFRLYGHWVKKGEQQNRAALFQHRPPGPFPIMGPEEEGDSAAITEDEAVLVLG

[2] = target: panel of 255 wild-type kinases (Homo sapiens, UniProt P35916)
[3] = target: T2, panel of 255 wild-type kinases (Homo sapiens, UniProt P41743)
T2 sequence (P41743 1-596): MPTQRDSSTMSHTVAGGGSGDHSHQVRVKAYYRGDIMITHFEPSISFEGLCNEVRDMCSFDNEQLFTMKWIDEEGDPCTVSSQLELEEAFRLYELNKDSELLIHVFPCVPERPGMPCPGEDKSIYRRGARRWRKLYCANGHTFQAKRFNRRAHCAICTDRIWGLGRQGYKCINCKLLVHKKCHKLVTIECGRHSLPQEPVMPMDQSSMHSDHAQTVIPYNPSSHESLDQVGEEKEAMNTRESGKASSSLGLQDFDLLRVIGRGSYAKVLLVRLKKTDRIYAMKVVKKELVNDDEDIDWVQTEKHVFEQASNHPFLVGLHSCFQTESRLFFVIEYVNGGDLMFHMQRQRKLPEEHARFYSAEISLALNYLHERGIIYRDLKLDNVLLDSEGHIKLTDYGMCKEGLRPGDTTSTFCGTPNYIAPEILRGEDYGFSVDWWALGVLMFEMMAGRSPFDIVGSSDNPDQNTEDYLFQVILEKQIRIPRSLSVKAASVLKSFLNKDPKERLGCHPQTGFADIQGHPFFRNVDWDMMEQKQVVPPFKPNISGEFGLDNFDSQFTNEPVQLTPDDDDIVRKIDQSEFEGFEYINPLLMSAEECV

[4] = target: T3, panel of 255 wild-type kinases (Homo sapiens, UniProt P42680)
T3 sequence (P42680 1-631): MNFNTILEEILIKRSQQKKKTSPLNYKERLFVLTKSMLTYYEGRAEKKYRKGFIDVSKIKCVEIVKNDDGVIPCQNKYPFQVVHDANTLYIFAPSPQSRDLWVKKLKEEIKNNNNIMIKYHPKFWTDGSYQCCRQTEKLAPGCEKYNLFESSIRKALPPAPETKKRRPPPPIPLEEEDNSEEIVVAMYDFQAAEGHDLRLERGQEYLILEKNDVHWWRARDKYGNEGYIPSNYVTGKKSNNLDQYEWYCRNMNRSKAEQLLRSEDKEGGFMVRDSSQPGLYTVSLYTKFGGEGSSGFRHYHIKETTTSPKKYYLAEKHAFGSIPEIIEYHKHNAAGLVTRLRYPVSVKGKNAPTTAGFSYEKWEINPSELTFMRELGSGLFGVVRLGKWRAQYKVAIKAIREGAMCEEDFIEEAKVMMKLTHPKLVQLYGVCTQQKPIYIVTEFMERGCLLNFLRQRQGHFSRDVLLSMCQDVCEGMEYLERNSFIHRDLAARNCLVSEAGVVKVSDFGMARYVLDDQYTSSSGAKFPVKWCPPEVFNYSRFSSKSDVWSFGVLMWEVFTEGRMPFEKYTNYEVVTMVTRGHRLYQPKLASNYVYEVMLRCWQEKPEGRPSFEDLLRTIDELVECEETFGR

[5] = target: panel of 255 wild-type kinases (Homo sapiens, UniProt P45984)
[6] = target: T4, panel of 255 wild-type kinases (Homo sapiens, UniProt Q96PN8)
T4 sequence (Q96PN8 1-268): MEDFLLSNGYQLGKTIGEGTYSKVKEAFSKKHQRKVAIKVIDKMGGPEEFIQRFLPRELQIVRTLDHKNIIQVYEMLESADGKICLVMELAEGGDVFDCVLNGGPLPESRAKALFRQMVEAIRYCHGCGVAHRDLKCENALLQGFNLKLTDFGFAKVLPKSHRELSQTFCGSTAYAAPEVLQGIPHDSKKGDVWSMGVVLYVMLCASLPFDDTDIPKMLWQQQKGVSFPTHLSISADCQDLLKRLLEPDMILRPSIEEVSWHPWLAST

[7] = kinase PHKG2, 1 µmol/L single concentration, ref DOI: 10.1158/1535-7163.MCT-18-0877
[8] = kinase FLT4, 1 µmol/L single concentration, ref DOI: 10.1158/1535-7163.MCT-18-0877
[9] = kinase PKCι, 1 µmol/L single concentration, ref DOI: 10.1158/1535-7163.MCT-18-0877
[10] = kinase TEC, 1 µmol/L single concentration, ref DOI: 10.1158/1535-7163.MCT-18-0877
[11] = kinase JNK2, 1 µmol/L single concentration, ref DOI: 10.1158/1535-7163.MCT-18-0877
[12] = kinase TSSK3, 1 µmol/L single concentration, ref DOI: 10.1158/1535-7163.MCT-18-0877
[13] = kinase PHKG2, 1 µmol/L single concentration, ref DOI: 10.1371/journal.pone.0092146
[14] = kinase FLT4, 1 µmol/L single concentration, ref DOI: 10.1371/journal.pone.0092146
[15] = kinase PKCι, 1 µmol/L single concentration, ref DOI: 10.1371/journal.pone.0092146
[16] = kinase TEC, 1 µmol/L single concentration, ref DOI: 10.1371/journal.pone.0092146
[17] = kinase JNK2, 1 µmol/L single concentration, ref DOI: 10.1371/journal.pone.0092146
[18] = kinase TSSK3, 1 µmol/L single concentration, ref DOI: 10.1371/journal.pone.0092146

Row | SMILES | %-inhibition at 1 µmol/L, PHKG2 [1, 7] [%] | %-inhibition at 1 µmol/L, FLT4 [2, 8] [%] | %-inhibition at 1 µmol/L, PKCι [3, 9] [%] | %-inhibition at 1 µmol/L, TEC [4, 10] [%] | %-inhibition at 1 µmol/L, JNK2 [5, 11] [%] | %-inhibition at 1 µmol/L, TSSK3 [6, 12] [%] | %-inhibition at 1 µmol/L, PHKG2 [1, 13] [%] | %-inhibition at 1 µmol/L, FLT4 [2, 14] [%] | %-inhibition at 1 µmol/L, PKCι [3, 15] [%] | %-inhibition at 1 µmol/L, TEC [4, 16] [%] | %-inhibition at 1 µmol/L, JNK2 [5, 17] [%] | %-inhibition at 1 µmol/L, TSSK3 [6, 18] [%] | also measured
1 | O=C(c1ccc(F)c(F)c1Nc1ccc(I)cc1F)N1CC(O)([C@@H]2CCCCN2)C1 [cobimetinib] | 2.22 | -6 | 2.45 | -1 | -2.51 | -5 |  |  |  |  |  |  | 
2 | CO[C@@H]1[C@H](N(C)C(=O)c2ccccc2)C[C@H]2O[C@]1(C)n1c3ccccc3c3c4c(c5c6ccccc6n2c5c31)C(=O)NC4 [midostaurin] | 67 | 99 | 3 | 58 | 8 | -2.3 |  |  |  |  |  |  | 
3 | C=CC(=O)N1CCC[C@@H](n2nc(-c3ccc(Oc4ccccc4)cc3)c3c(N)ncnc32)C1 [ibrutinib] | 0.816 | 91 | 2.23 | 92 | -2.83 | -4 |  |  |  |  |  |  | 
4 | C[C@@H](Oc1cc(-c2cnn(C3CCNCC3)c2)cnc1N)c1c(Cl)ccc(F)c1Cl [crizotinib] |  |  |  |  |  |  | 10 | 48 | -5 | 1.53 | -2.59 | -0.601 | 
5 | Cc1cc(Nc2ncc(Cl)c(Nc3ccccc3S(=O)(=O)C(C)C)n2)c(OC(C)C)cc1C1CCNCC1 [ceritinib] | 83 | 75 | 25 | -8 | 16 | 8 |  |  |  |  |  |  | 
6 | CC(C)(C)c1nc(-c2cccc(NS(=O)(=O)c3c(F)cccc3F)c2F)c(-c2ccnc(N)n2)s1 [dabrafenib] |  |  |  |  |  |  | 2 | 85 | 14 | 38 | -0.947 | -8 | 
7 | C=CC(=O)Nc1cc(Nc2nccc(-c3cn(C)c4ccccc34)n2)c(OC)cc1N(C)CCN(C)C [osimertinib] | 11 | 40 | 20 | 86 | -2.75 | -0.941 |  |  |  |  |  |  | 
8 | CC#CC(=O)N1CCC[C@H]1c1nc(-c2ccc(C(=O)Nc3ccccn3)cc2)c2c(N)nccn12 [acalabrutinib] | 0.00605 | 1.41 | -8 | 96 | -1.85 | -8 |  |  |  |  |  |  | 
9 | COc1cc(N2CCC(N3CCN(C)CC3)CC2)ccc1Nc1ncc(Cl)c(Nc2ccccc2P(C)(C)=O)n1 [brigatinib] |  |  |  |  |  |  |  |  |  |  |  |  | %-inhibition at 1 µmol/L, PHKG2 [1]: 96%; %-inhibition at 1 µmol/L, FLT4 [2]: 99%; %-inhibition at 1 µmol/L, PKCι [3]: -38%; %-inhibition at 1 µmol/L, TEC [4]: 40%; %-inhibition at 1 µmol/L, JNK2 [5]: 50%; %-inhibition at 1 µmol/L, TSSK3 [6]: 3%
10 | CCCS(=O)(=O)Nc1ccc(F)c(C(=O)c2c[nH]c3ncc(-c4ccc(Cl)cc4)cc23)c1F [vemurafenib] |  |  |  |  |  |  | -4.37 | 24 | -16 | -0.191 | -0.0632 | -3.19 | 
11 | CCc1cc2c(cc1N1CCC(N3CCOCC3)CC1)C(C)(C)c1[nH]c3cc(C#N)ccc3c1C2=O [alectinib] | 75 | 39 | 11 | 1.06 | -0.468 | -3.58 |  |  |  |  |  |  | 
12 | CC(=O)Nc1cccc(-n2c(=O)n(C3CC3)c(=O)c3c(Nc4ccc(I)cc4F)n(C)c(=O)c(C)c32)c1 [trametinib] |  |  |  |  |  |  | 2.81 | 1.51 | 9 | -7.53 | -4.73 | -8 | 
